Assay results: patent publication US6297216A, “Compounds for reversing drug resistance” (Solvo Biotechnology, priority 1997, dated 2001)
Read-outs that look alike come from different tables or passages of the source. Peptide text beside a SMILES is read from it. * marks the point of attachment. Cbz = O=C(OCc1ccccc1)*; Boc = CC(C)(C)OC(=O)*; OBn = c1ccc(CO*)cc1; OtBu = CC(C)(C)O*

Tests used:
[1] = In vivo acute and subacute toxicity; set-up: species or system rat; settings: rats, two-week follow-up
Description: The safety of Reversins for human administration can be confirmed in appropriate animal models. For example, the in vivo acute and subacute toxicity of Reversins was examined in laboratory rats. Reversins 121 and 205 solutions were prepared and administered as follows. Type A solutions contained 50 μg/ml Reversin 121 or 205 in 20% ethanol in physiological saline. Type B solutions contained 1 mg/ml in glycerol, containing 10% ethanol. Type A solutions (0.5 ml) were administered intravenously to three laboratory rats weighing 200-250 g each (about 100-125 μg/kg) twice daily for 3 days. Type B solutions (0.5 ml) were given to similar rats (2-2.5 mg/kg) by intraperitoneal injection, twice daily for three days. Control rats received the same solutions without the Reversins.

KBV1 cells = assay: Cytotoxicity of Reversin alone in multidrug-resistant KBV1 cells; assay type: cell-based, human; settings: MDR1-expressing cells, FIG. 11(A)
Description: (§1) NIH 3T3 cells were cultured under standard conditions in D-MEM medium. MDR1-transfected cells (NIH MDR1 G185) were prepared and characterized for their drug-resistant properties as described (Ambdukar et al. Proc. Natl. Acad. Sci. USA 89:8472-8476, 1992; Bruggemann et al. J. Biol. Chem. 267:21020-21026, 1992; Sarkadi et al. 1992 supra). Before each experiment the cells were trypsinized, then washed and stored in D-MEM medium at 37° C. KBV1 (MDR1^+) and KB3 (MDR1^-) human tumor cells were also cultured in D-MEM, which K562 human tumor cells were grown in RPMI medium, supplemented with 10% FCS.
In these studies, adriamycin, vincristine, and vinblastine, in originally ineffective concentrations, become effectively cytotoxic in the presence of 1-10 μg/ml of Reversins 121 or 205. FIGS. 10A and 10B present such an experiment for Reversin 205 using K562 human erythroblastoid tumor cells and their adriamycin-selected multidrug-resistant subline. FIGS. 11A and 11B are similar experiments with the […] tumor cells KB3 and KBV1, the latter being a multidrug resistant subline. […] Such a collateral toxic effect (which may be due to the ATP-consuming futile functioning of the drug transporter) can be greatly advantageous in treating drug-resistant tumors.

[2] = system: multidrug-resistant human tumor cell lines; assay: Enhancement of cytotoxicity of drugs in multidrug-resistant human tumor cell lines; assay type: cell-based; settings: K562 MDR and KBV1 sublines, FIGS. 10-11
Description: as §1
Another method for assessing the ability of Reversins to inhibit drug resistance is to measure the cytotoxicity of drugs in multidrug-resistant human tumor cell lines. Since MDR1 normally lowers the concentration of cytotoxic agents to subtoxic concentrations by extruding them from the cell, inhibition of MDR1 would be expected to enhance cytotoxicity.
In these studies, adriamycin, vincristine, and vinblastine, in originally ineffective concentrations, become effectively cytotoxic in the presence of 1-10 μg/ml of Reversins 121 or 205. FIGS. 10A and 10B present such an experiment for Reversin 205 using K562 human erythroblastoid tumor cells and their adriamycin-selected multidrug-resistant subline. […]

MDR1 [3] = target: T1, MDR1 (Homo sapiens, UniProt P08183)
T1 sequence (P08183 whole entry): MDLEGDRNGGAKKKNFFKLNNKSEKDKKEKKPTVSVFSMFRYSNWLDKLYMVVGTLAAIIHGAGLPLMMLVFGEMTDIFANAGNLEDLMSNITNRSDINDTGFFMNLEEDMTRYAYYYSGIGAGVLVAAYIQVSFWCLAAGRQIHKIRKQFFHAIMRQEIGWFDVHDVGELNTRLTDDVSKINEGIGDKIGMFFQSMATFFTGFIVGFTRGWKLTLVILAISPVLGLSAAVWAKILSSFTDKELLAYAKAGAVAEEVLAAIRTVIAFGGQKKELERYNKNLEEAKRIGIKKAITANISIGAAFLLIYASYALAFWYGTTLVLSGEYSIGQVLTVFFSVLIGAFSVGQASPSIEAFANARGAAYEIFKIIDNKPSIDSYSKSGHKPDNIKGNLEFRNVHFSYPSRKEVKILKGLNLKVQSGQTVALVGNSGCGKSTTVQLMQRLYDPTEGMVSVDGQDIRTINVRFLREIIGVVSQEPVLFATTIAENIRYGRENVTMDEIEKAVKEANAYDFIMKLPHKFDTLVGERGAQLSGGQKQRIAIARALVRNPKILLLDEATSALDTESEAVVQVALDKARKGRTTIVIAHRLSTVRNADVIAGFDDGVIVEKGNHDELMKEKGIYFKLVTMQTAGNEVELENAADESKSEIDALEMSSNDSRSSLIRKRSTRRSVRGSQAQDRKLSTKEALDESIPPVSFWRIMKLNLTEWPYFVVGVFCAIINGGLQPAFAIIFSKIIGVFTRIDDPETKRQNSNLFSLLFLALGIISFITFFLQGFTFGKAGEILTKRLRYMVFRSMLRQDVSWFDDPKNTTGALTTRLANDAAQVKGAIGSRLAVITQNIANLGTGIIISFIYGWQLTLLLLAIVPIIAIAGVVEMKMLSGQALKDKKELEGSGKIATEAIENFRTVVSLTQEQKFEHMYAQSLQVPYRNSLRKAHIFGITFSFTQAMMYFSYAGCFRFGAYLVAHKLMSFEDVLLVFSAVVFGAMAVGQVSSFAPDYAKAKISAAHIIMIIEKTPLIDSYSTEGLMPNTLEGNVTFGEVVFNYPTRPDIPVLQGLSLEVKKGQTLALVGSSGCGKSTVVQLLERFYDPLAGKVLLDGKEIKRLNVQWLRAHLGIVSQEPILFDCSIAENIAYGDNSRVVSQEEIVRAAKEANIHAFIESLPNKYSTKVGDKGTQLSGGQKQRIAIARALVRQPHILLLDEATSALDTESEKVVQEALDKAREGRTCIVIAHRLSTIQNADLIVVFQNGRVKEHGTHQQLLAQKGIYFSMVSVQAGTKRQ

MDR1 [4] = target: T1, MDR1; remark: listed apart in the source
Description: (§5) The second assay is based on the measurement of fluorescent dye uptake into intact cells. […] These hydrophobic dye esters are non-fluorescent outside the cell are cleaved by intracellular esterases into hydrophilic fluorescent free acids.

MDR1 [5] = target: T1, MDR1; assay: Flow-cytometric fluorescent dye uptake in multidrug-resistant leukocytes of a leukemic patient; assay type: cell-based; set-up: endogenous in cells; host or cells: white blood cells isolated from the blood of a leukemic patient; settings: 5 μM, 37° C., 10 minutes, FIG. 8
Description: Fluorescence measurements were done in 60 sec scanning periods using a Cytoronabsolut instrument (Ortho Diagnostic Systems, NJ). The excitation was set to 488 nm. Green fluorescence was measured with a filter with a range of 515-548 nm, while red fluorescence was measured above 620 nm.
By using the some fluorescent dye extrusion assay described above the in vitro effects of Reversins on the multidrug-resistant leukocytes of a leukemic patient were studied. Cells were isolated by withdrawing blood from the patient, and isolating white blood cells by centrifugation. Cells can be isolated from other types of tumors by biopsy. A flow cytometer was used to measure fluorescent dye loading of individual cells, which had been previously shown to express MDR1, in the absence or presence of Reversin 205 (FIG. 8). The uptake of fluorescent dye under these conditions models the uptake of cytotoxic drugs into the tumor cells. Fluorescent dye uptake was measured at 37° C. for 10 minutes. […] Further details for the method are provided by Hollo et al., supra.

control P388 cells = assay: Mouse P388 leukemia model, survival; assay type: in vivo; settings: 1 mg/kg/day for 6 days, mice injected with control P388 cells
Description: (§2) In vivo animal studies for the effectiveness of Reversins can be conducted using any suitable animal model system known to those skilled in the art. One example of an appropriate system is the mouse P388 leukemia model system (Tsurouo et al., supra). This animal model is widely accepted for testing the effect of cytotoxic antileukemic agents or response-modifier compounds.
(§3) Inbred (DBA×black F1) mice received 10^6 P388 leukemia cells by intraperitoneal injection. The survival of the mice was followed. The mice were injected with control P388 cells, as well as with P388 cells that had been selected under drug exposure. Drug exposure induced over-expression of the MDR1 protein (P388-MDR cells).
(§4) The mice injected with the P388 cells were treated with doxorobicin (adriamycin) in a dose of 1 mg/kg/day for 6 days after the injection of the P388 cells. […] Reversin can be administered to the animals in a dose of 2 mg/kg, a level which has no toxic effect on the control animals, as discussed above.

P388-MDR cells = assay: Mouse P388-MDR leukemia model, survival; assay type: in vivo; settings: 1 mg/kg/day for 6 days, mice injected with P388-MDR cells
Description: as §2, §3, §4

control NIH 3T3 cells = assay: Fluorescent dye accumulation in fibroblasts which do not overexpress MDR1; assay type: cell-based, mouse; settings: fibroblasts which do not overexpress MDR1, FIG. 6
Description: NIH 3T3 cells were cultured under standard conditions in D-MEM medium. […] Before each experiment the cells were trypsinized, then washed and stored in D-MEM medium at 37° C. KBV1 (MDR1^+) and KB3 (MDR1^-) human tumor cells were also cultured in D-MEM, which K562 human tumor cells were grown in RPMI medium, supplemented with 10% FCS.
Human MDR1-transfected mouse fibroblasts and MDR1-expressing human tumor cells actively extrude the AM forms of several fluorescent indicators, lowering the level of intracellular fluorescence in cells with active multidrug transport.
Dye uptake was measured by incubating 2×10^6 cells/ml D-MEM medium at 37° C. in the presence of 0.5 μM Fura-2 AM (added in 5 mM stock solution in DMSO), then rapidly spinning the cells (15 sec, 12,000×g), and rinsing the pellet with HPM1 medium (containing 120 mM NaCl, 5 mM kcl, 0.4 mM MgCl2, 0.04 mM CaCl2, 10 mM HEPES-Na (pH 7.4), 10 mM NaHCO3, 10 mM glucose, and 5 mM Na2 HPO4). The cells were resuspended in 2 ml HPM1 and fluorescence was measured with rapid stirring in a Hitachi F-4000 fluorescent spectrophotometer. The excitation wavelength was 340 nm, and emission was measured at 410 nm. Maximum fluorescence and dye concentration were measured after the addition of 0.5% Triton X-100 and 2 mM CaCl2 to the medium. The dye concentration was calibrated based on the measurements of free acid dye fluorescence in the same instrument under identical conditions.

MDR1 [6] = target: T1, MDR1; assay: Fluorescent dye (Fura-2 AM) extrusion assay in MDR1-transfected NIH 3T3 fibroblasts; settings: MDR1-expressing fibroblasts, FIG. 6
Description: as §5

[7] = intraperitoneal, 2-2.5 mg/kg twice daily for three days
[8] = intravenous, about 100-125 μg/kg twice daily for 3 days

## CC(C)(C)OC(=O)N[C@@H](CC(=O)OCc1ccccc1)C(=O)N[C@@H](CCCCNC(=O)OCc1ccccc1)C(=O)OC(C)(C)C [Reversin 121, BOC-Asp(OBzl)-Lys(Z)-OtBu] (Boc-Asp(OBn)-Lys(Cbz)-OtBu)
[1]; [7]
  acute or subacute toxicity: no acute or subacute toxicity
[1]; [8]
  acute or subacute toxicity: no acute or subacute toxicity
KBV1 cells
  cytotoxicity without vinblastine: cytotoxic
[2]
  Reversin concentration at which originally ineffective adriamycin, vincristine and vinblastine become effectively cytotoxic: 1 to 10 µg/mL
MDR1 [3]
  half-maximal activating concentration (Ka) of MDR1-ATPase: approximately 60 nM
  stimulation of MDR1-ATPase: greatly stimulated
MDR1 [4]
  inhibition of Fura2-AM dye extrusion: inhibit this dye extrusion

## COC(=O)[C@H](CCCCNC(=O)[C@H](CCC(=O)OCc1ccccc1)NC(=O)OC(C)(C)C)NC(=O)[C@H](CCC(=O)OCc1ccccc1)NC(=O)OC(C)(C)C [Reversin 205, N^α, N^ε -bis[BOC-Glu(OBzl)]-Lys-OMe]
[1]; [7]
  acute or subacute toxicity: no acute or subacute toxicity
[1]; [8]
  acute or subacute toxicity: no acute or subacute toxicity
MDR1 [5]
  dye extrusion by MDR1: blocked dye extrusion
  fluorescent dye uptake: significantly increased
[2]
  Reversin concentration at which originally ineffective adriamycin, vincristine and vinblastine become effectively cytotoxic: 1 to 10 µg/mL
MDR1 [3]
  concentration giving strong inhibition of the MDR1-ATPase: above 1 μM
  half-maximal activating concentration (Ka) of MDR1-ATPase: about 30 nM
  stimulation of MDR1-ATPase: greatly stimulated
MDR1 [4]
  inhibition of Fura2-AM dye extrusion: inhibit this dye extrusion

## COc1cccc2c1C(=O)c1c(O)c3c(c(O)c1C2=O)C[C@@](O)(C(=O)CO)C[C@@H]3O[C@H]1C[C@H](N)[C@H](O)[C@H](C)O1 [adriamycin]
Control P388 cells
  survival time: > 30 days
P388-MDR cells
  prolongation of lifetime: did not significantly prolong

## C=C[C@H]1C[N@@]2CC[C@H]1C[C@H]2[C@H](O)c1ccnc2ccc(OC)cc12 [quinine, reference compound]
MDR1 [3]
  stimulation of MDR1-ATPase: stimulated

## [Na+].[Na+].[Na+].[O]=[V]([O-])([O-])[O-] [sodium orthovanadate]
Control NIH 3T3 cells
  effect on dye accumulation: no effect
MDR1 [6]
  block of MDR1-specific dye-AM extrusion: blocked

## COc1ccc(CCN(C)CCCC(C#N)(c2ccc(OC)c(OC)c2)C(C)C)cc1OC (centres unmarked) [verapamil]
Control NIH 3T3 cells
  effect on dye accumulation: no effect

## CC[C@]1(O)C[C@H]2CN(CCc3c([nH]c4ccccc34)[C@@](C(=O)OC)(c3cc4c(cc3OC)N(C=O)[C@H]3[C@@](O)(C(=O)OC)[C@H](OC(C)=O)[C@]5(CC)C=CCN6CC[C@]43[C@@H]65)C2)C1 [vincristine, reference compound]
Control NIH 3T3 cells
  effect on dye accumulation: no effect
MDR1 [3]
  stimulation of MDR1-ATPase: stimulated
MDR1 [4]
  block of MDR1-specific dye-AM extrusion: blocked
  inhibition of Fura2-AM dye extrusion: inhibit this dye extrusion
